In EPA's ToxRefDB 2:

Tests used:
mouse [1] = conditions: Prenatal developmental toxicity study, other, Injection, Intraperitoneal, dose end: 15 GD
mouse [2] = conditions: Subchronic inhalation toxicity, b6c3f1, Whole-Body, dose end: 13 week, group: systemic, systemic / organ weight / kidney / absolute + systemic / organ weight / kidney / relative to body weight + systemic / organ weight / liver…
rat [3] = conditions: Combined chronic toxicity/carcinogenicity, sprague dawley, Inhalation, Whole-Body, dose end: 2 year, group: systemic
rabbit [4] = conditions: Prenatal developmental toxicity study, himalayan, Dermal, Topical, dose end: 18 GD
rat [5] = conditions: Prenatal developmental toxicity study; long evans; Inhalation; Whole-Body; dose end: 15 GD; group: developmental; systemic / in life observation / body weight / fetal weight
rat [6] = conditions: Prenatal developmental toxicity study, sprague dawley, Oral, Gavage/Intubation, dose end: 15 GD
rat [7] = conditions: Prenatal developmental toxicity study, sprague dawley, Dermal, Topical, dose end: 15 GD
rat [8] = conditions: Subchronic oral toxicity in rodents, wistar, Feed, dose end: 104 day, group: systemic
mouse [9] = conditions: Subchronic inhalation toxicity, b6c3f1, Whole-Body, dose end: 12 week, group: systemic
rat [10] = conditions: Subchronic inhalation toxicity, fischer, Whole-Body, dose end: 12 week, group: systemic
rat [11] = conditions: Prenatal developmental toxicity study, sprague dawley, Inhalation, Whole-Body, dose end: 15 GD
mouse [12] = conditions: Subchronic oral toxicity in rodents, cd1, Feed, dose end: 119 day, group: systemic
rat [13] = conditions: Subchronic inhalation toxicity, fischer, Whole-Body, dose end: 13 week, group: systemic
mouse [14] = conditions: Carcinogenicity; cd1; Inhalation; Whole-Body; dose end: 18 month; group: systemic; systemic / pathology microscopic / liver / hemosiderosis + systemic / pathology microscopic / liver / hyperplasia + systemic / pathology …
rat [15] = conditions: Prenatal developmental toxicity study, sprague dawley, Oral, Gavage/Intubation, dose end: 20 GD
rabbit [16] = conditions: Prenatal developmental toxicity study, himalayan, Inhalation, Whole-Body, dose end: 19 GD
[17] = group: developmental, developmental / developmental malformation / bone / exencephaly
[18] = group: maternal, reproductive / reproductive performance / resorptions / resorptions
[19] = group: maternal, reproductive / reproductive performance / resorptions / resorptions + systemic / in life observation / body weight / body weight + systemic…
[20] = systemic / organ weight / liver / relative to body weight + systemic / pathology microscopic / liver / clear cell focus + systemic / …
[21] = group: developmental, developmental / developmental malformation / general / [other]
[22] = group: maternal, systemic / in life observation / body weight / body weight + systemic / in life observation / clinical signs / skin ulceration
[23] = group: developmental, developmental / developmental malformation / general / [other] + developmental / developmental malformation / general / anasarca + …
[24] = group: maternal, reproductive / reproductive performance / resorptions / resorptions + systemic / in life observation / body weight / body weight gain + …
[25] = group: maternal, systemic / organ weight / placenta / absolute
[26] = group: developmental, developmental / developmental malformation / general / [other] + developmental / developmental malformation / general / crown-rump length
[27] = group: maternal, systemic / organ weight / placenta / absolute + systemic / in life observation / body weight / body weight gain + systemic / in life …
[28] = systemic / clinical chemistry / sodium / sodium + systemic / in life observation / body weight / body weight gain + systemic / in life …
[29] = systemic / in life observation / mortality / mortality + systemic / pathology gross / liver / discolored + systemic / pathology microscopic…
[30] = systemic / pathology microscopic / liver / cytomegaly
[31] = systemic / clinical chemistry / alanine aminotransferase (alt/sgpt) / alanine aminotransferase (alt/sgpt) + systemic / clinical chemistry / …
[32] = group: developmental, systemic / in life observation / body weight / fetal weight
[33] = group: maternal, systemic / in life observation / body weight / body weight gain
[34] = systemic / organ weight / liver / absolute + systemic / organ weight / liver / relative to body weight + systemic / pathology microscopic / …
[35] = systemic / hematology / erythrocyte (rbc) count differential / erythrocyte (rbc) + systemic / hematology / mean corpuscular (cell) volume (…
[36] = group: developmental, developmental / developmental malformation / bone / incomplete ossification + systemic / in life observation / body weight / fetal weight
[37] = group: maternal, systemic / in life observation / body weight / body weight gain + systemic / in life observation / food consumption / food consumption
[38] = group: developmental, developmental / developmental malformation / bone / bipartite ossification + developmental / developmental malformation / bone / fused + …
[39] = group: maternal, systemic / in life observation / body weight / body weight

In the case of `CN(C)C=O` [N,N-Dimethylformamide], the LEL (mouse [1]; [17]) is reported as 944 mg/kg/day, the LOAEL (mouse [1]; [17]) is reported as greater than 944 mg/kg/day and the NEL (mouse [1]; [17]) is reported as 378 mg/kg/day. The NOAEL (mouse [1]; [17]) was no less than 944 mg/kg/day, the LEL (mouse [1]; [18]) was 378 mg/kg/day and the NEL (mouse [1]; [18]) was less than 378 mg/kg/day. The LOAEL (mouse [1]; [19]) was greater than 944 mg/kg/day, the NOAEL (mouse [1]; [19]) was no less than 944 mg/kg/day and the LEL (mouse [2]) was 50 ppm. For the same compound, the LOAEL (mouse [2]) was greater than 800 ppm, the NEL (mouse [2]) was less than 50 ppm and the NOAEL (mouse [2]) was no less than 800 ppm. It also gave an LOAEL (rat [3]; [20]) greater than 400 ppm, an NEL (rat [3]; [20]) of 25 ppm and an NOAEL (rat [3]; [20]) of no less than 400 ppm. For the same compound, the LEL (rat [3]; systemic / organ weight / liver / relative to body weight + systemic / pathology microscopic / liver / hypertrophy + systemic / clinical …) was 100 ppm, the LEL (rabbit [4]; [21]) was 400 mg/kg/day and the LOAEL (rabbit [4]; [21]) was greater than 400 mg/kg/day. For the same compound, the NEL (rabbit [4]; [21]) was 200 mg/kg/day, the NOAEL (rabbit [4]; [21]) was no less than 400 mg/kg/day and the LEL (rabbit [4]; [22]) was 400 mg/kg/day. The LOAEL (rabbit [4]; [22]) was greater than 400 mg/kg/day, the NEL (rabbit [4]; [22]) was 200 mg/kg/day and the NOAEL (rabbit [4]; [22]) was no less than 400 mg/kg/day. For the same compound, the LEL (rat [5]) was 172 ppm, the LOAEL (rat [5]) was greater than 172 ppm and the NEL (rat [5]) was 18 ppm. It also gave an NOAEL (rat [5]) of no less than 172 ppm, an LOAEL (rat [6]; [23]) greater than 1510 mg/kg/day and an NEL (rat [6]; [23]) of 166 mg/kg/day. It also gave an NOAEL (rat [6]; [23]) of no less than 1510 mg/kg/day, an LEL (rat [6]; group: developmental, developmental / developmental malformation / general / [other] + developmental / developmental malformation / general / crown-rump length + …) of 503 mg/kg/day and an LOAEL (rat [6]; [24]) greater than 1510 mg/kg/day. The NOAEL (rat [6]; [24]) was no less than 1510 mg/kg/day, the LEL (rat [6]; [25]) was 166 mg/kg/day and the NEL (rat [6]; [25]) was less than 166 mg/kg/day. It also gave an LEL (rat [7]; [26]) of 944 mg/kg/day, an LOAEL (rat [7]; [26]) greater than 944 mg/kg/day and an NEL (rat [7]; [26]) of 472 mg/kg/day. For the same compound, the NOAEL (rat [7]; [26]) was no less than 944 mg/kg/day, the LEL (rat [7]; [25]) was 94 mg/kg/day and the NEL (rat [7]; [25]) was less than 94 mg/kg/day. The LOAEL (rat [7]; [27]) was greater than 944 mg/kg/day, the NOAEL (rat [7]; [27]) was no less than 944 mg/kg/day and the LOAEL (rat [8]; [28]) was greater than 210 mg/kg/day. For the same compound, the NOAEL (rat [8]; [28]) was no less than 210 mg/kg/day, the LEL (rat [8]; systemic / in life observation / food consumption / food consumption) was 69 mg/kg/day and the NEL (rat [8]; systemic / in life observation / food consumption / food consumption + systemic / in life observation / body weight / body weight gain + …) was 20 mg/kg/day. It also gave an LOAEL (mouse [9]; [29]) greater than 1200 ppm, an NOAEL (mouse [9]; [29]) of no less than 1200 ppm and an LEL (mouse [9]; [30]) of 150 ppm. For the same compound, the NEL (mouse [9]; [30]) was less than 150 ppm, the LOAEL (rat [10]; [31]) was greater than 1200 ppm and the NOAEL (rat [10]; [31]) was no less than 1200 ppm. It also gave an LEL (rat [10]; systemic / clinical chemistry / alkaline phosphatase (alp/alk) / alkaline phosphatase (alp/alk)) of 300 ppm, an NEL (rat [10]; systemic / clinical chemistry / alkaline phosphatase (alp/alk) / alkaline phosphatase (alp/alk) + systemic / clinical chemistry / aspartate …) of 150 ppm and an LEL (rat [11]; [32]) of 300 ppm. For the same compound, the LOAEL (rat [11]; [32]) was greater than 300 ppm, the NEL (rat [11]; [32]) was 30 ppm and the NOAEL (rat [11]; [32]) was no less than 300 ppm. For the same compound, the LEL (rat [11]; [33]) was 300 ppm, the LOAEL (rat [11]; [33]) was greater than 300 ppm and the NEL (rat [11]; [33]) was 30 ppm. It also gave an NOAEL (rat [11]; [33]) of no less than 300 ppm, an LOAEL (mouse [12]; [34]) greater than 246 mg/kg/day and an NOAEL (mouse [12]; [34]) of no less than 246 mg/kg/day. For the same compound, the LEL (mouse [12]; systemic / organ weight / liver / relative to body weight) was 96 mg/kg/day, the NEL (mouse [12]; systemic / organ weight / liver / relative to body weight + systemic / clinical chemistry / alanine aminotransferase (alt/sgpt) / alanine …) was 28 mg/kg/day and the LOAEL (rat [13]; [31]) was greater than 800 ppm. The NOAEL (rat [13]; [31]) was no less than 800 ppm, the LEL (rat [13]; [35]) was 50 ppm and the NEL (rat [13]; [35]) was less than 50 ppm. For the same compound, the LEL (mouse [14]) was 25 ppm, the LOAEL (mouse [14]) was greater than 400 ppm and the NEL (mouse [14]) was less than 25 ppm. For the same compound, the NOAEL (mouse [14]) was no less than 400 ppm, the LOAEL (rat [15]; [36]) was greater than 300 mg/kg/day and the NEL (rat [15]; [36]) was 50 mg/kg/day. It also gave an NOAEL (rat [15]; [36]) of no less than 300 mg/kg/day, an LEL (rat [15]; [32]) of 100 mg/kg/day and an LEL (rat [15]; [37]) of 100 mg/kg/day. For the same compound, the LOAEL (rat [15]; [37]) was greater than 300 mg/kg/day, the NEL (rat [15]; [37]) was 50 mg/kg/day and the NOAEL (rat [15]; [37]) was no less than 300 mg/kg/day. The LEL (rabbit [16]; [38]) was 450 ppm, the LOAEL (rabbit [16]; [38]) was greater than 450 ppm and the NEL (rabbit [16]; [38]) was 150 ppm. It also gave an NOAEL (rabbit [16]; [38]) of no less than 450 ppm, an LEL (rabbit [16]; [39]) of 450 ppm and an LOAEL (rabbit [16]; [39]) greater than 450 ppm. The NEL (rabbit [16]; [39]) was 150 ppm and the NOAEL (rabbit [16]; [39]) was no less than 450 ppm.
